From article PMC6445163, “Design, synthesis, and evaluation of novel 2-phenylpropionic acid derivatives as dual COX inhibitory-antibacterial agents” (Journal of Enzyme Inhibition and Medicinal Chemistry, 2017)
Converted amounts (≈) assume the structure as drawn.

What was measured:
[1] = tested on: Candida albicans (ATCC 24433); test: broth dilution MIC (EUCAST EDef 7.1), resazurin; format: cell-based; details: ATCC24433, 24 h
Protocol: (§1) Microbiological studies were performed according to following guides: CLSI reference […]-A9 broth microdilution method[49] for bacterial strains and EUCAST definitive (EDef 7.1) method[50] for Candida species. Synthesized compounds were tested for their in vitro growth inhibitory activity against Staphylococcus aureus (ATCC 25923), Enterococcus faecalis (ATCC 29212), Listeria monocytogenes (ATCC 1911), Klebsiella pneumoniae (NCTC 9633), Escherichia coli (ATCC 35218), E. coli (ATCC 25922) Candida albicans (ATCC 24433) Candida krusei (ATCC 6258) and Candida parapsilosis (ATCC 22019). Chloramphenicol and ketoconazole were used as control drugs. The cultures were obtained from the Mueller-Hinton broth (Difco) for the bacterial strains after overnight incubation at 37 °C. The yeasts were maintained in Roswell Park Memorial Institute (RPMI) after overnight incubation at 37 °C. […] Testing was carried out in Mueller-Hinton broth and RPMI at pH =7, and the two-fold serial dilutions technique was applied. The last well on the microplates containing only inoculated broth was kept as controls and the last well with no growth of microorganism was recorded to represent the minimum inhibitory concentration (MIC) expressed in μg/mL. For both the antibacterial and antifungal assays, the compounds were dissolved in DMSO. […] The completed plates were incubated for 24 h. At the end of the incubation, resazurin (20 μg/mL) was added into each well and plates were incubated for 2 h. MIC values were determined using a microplate reader at […]. Synthesized compounds (6a-6m) were evaluated for antimicrobial activity against various microorganisms such as Staphylococcus aureus (ATCC 25923), Enterococcus faecalis (ATCC 29212), Listeria monocytogenes (ATCC 1911), Klebsiella pneumoniae (NCTC 9633), Escherichia coli (ATCC 35218), E. coli (ATCC 25922)Candida albicans (ATCC 24433) Candida krusei (ATCC 6258) and Candida parapsilosis (ATCC 22019). […] Chloramphenicol and ketoconazole were used as standard drugs in the activity test. […] Besides, the compounds 6d, 6h, 6l and 6m indicated stronger antibacterial activity than the other compounds in the series.

[2] = tested on: Candida parapsilosis (ATCC 22019); test: broth dilution MIC (EUCAST EDef 7.1), resazurin; format: cell-based; details: ATCC22019, 24 h
Protocol: as §1

[3] = tested on: Candida krusei (ATCC 6258); test: broth dilution MIC (EUCAST EDef 7.1), resazurin; format: cell-based; details: Pichia kudriavzevii, ATCC6258, 24 h
Protocol: as §1

COX-1 = biological target: T1, COX-1 (Ovis aries, UniProt P05979); test: fluorometric COX-1 inhibitor screening kit assay; format: biochemical; details: for SI (selectivity index): IC50 (COX-1)/IC50 (COX-2); for IC50: fluorometric kit, 25 °C; for Selectivity: isoform preferred according to SI
T1 construct: purchased Biovision K548-100
T1 sequence (P05979 25-600): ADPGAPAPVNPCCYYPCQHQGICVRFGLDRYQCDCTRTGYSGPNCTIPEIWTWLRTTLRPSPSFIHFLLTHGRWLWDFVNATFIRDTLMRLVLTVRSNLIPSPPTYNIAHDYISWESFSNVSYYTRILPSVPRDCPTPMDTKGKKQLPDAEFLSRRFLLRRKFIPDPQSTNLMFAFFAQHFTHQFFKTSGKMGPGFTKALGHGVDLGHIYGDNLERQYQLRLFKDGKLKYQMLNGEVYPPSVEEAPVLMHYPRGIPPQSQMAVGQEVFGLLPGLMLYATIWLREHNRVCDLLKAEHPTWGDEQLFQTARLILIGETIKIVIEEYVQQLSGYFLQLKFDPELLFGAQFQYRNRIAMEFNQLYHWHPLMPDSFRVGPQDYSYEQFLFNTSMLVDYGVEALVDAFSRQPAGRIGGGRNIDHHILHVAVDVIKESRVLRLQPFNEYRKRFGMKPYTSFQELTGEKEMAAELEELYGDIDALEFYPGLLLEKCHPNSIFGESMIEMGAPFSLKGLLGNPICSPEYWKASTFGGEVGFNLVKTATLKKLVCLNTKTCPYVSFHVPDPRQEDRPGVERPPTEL
Protocol: (§2) Inhibitory potency of the compounds against COX-1 and COX-2 enzymes was determined using fluorometric COX-1 and COX-2 inhibitor screening kits (Biovision, Zurich, Switzerland). Experimental protocol was followed as described in the guides of the supplier[47]^,[48]. All of the pipettings in the assay were performed by Biotek Precision robotic system (BioTek Instruments, Inc., Winooski, VT). […] Appropriate two points (T1 and T2) in the linear range of the plot were chosen, and the corresponding fluorescence values (RFU1 and RFU2) were obtained. The slope for all samples, including enzyme control (EC), by dividing the net ΔRFU (RFU2–RFU1) values by the time ΔT (T2–T1) were calculated by using following equation: % Relative inhibition=(Slope of EC-Slope of S/Slope of EC)×100
(§3) This initial in vitro assay was done with two concentrations (10^−3 and 10^−4 M) for all compounds. […] The IC50 value was calculated from the plots of enzyme activity against concentrations by applying regression analyses on GraphPad Prism Version 5 (GraphPad Software, La Jolla, CA).
(§4) Selectivity indexes (SI) were expressed as IC50 (COX-1)/IC50 (COX-2). Selectivity toward COX-2 decreases as the corresponding SI decreases while selectivity toward COX-1 isoform increases as the corresponding SI decreases.

COX-2 = biological target: T2, COX-2 (Homo sapiens, UniProt P35354); test: fluorometric COX-2 inhibitor screening kit assay; format: biochemical; details: 25 °C
T2 construct: purchased Biovision K547-100
T2 sequence (P35354 18-604): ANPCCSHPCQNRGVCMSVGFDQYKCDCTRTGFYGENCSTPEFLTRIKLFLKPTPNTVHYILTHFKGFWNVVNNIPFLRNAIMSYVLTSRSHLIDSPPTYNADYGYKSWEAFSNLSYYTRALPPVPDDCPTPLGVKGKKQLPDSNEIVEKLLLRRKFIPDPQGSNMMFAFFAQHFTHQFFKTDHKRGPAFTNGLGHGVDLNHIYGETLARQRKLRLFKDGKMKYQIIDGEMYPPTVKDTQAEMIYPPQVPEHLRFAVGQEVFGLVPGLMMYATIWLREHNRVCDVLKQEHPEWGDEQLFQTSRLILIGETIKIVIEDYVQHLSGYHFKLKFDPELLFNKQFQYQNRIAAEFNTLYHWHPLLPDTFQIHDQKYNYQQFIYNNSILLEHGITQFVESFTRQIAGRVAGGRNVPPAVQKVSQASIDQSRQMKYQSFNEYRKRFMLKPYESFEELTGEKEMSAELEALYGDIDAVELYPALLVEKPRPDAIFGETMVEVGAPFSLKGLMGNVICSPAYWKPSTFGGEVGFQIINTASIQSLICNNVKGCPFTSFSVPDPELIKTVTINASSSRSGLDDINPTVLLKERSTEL
Protocol: as §2, §3, §4

[4] = tested on: Escherichia coli (ATCC 25922); test: broth microdilution MIC (CLSI M07-A9), resazurin; format: cell-based; details: ATCC25922, 24 h, read-out: MIC Ec-2
Protocol: as §1

[5] = tested on: Klebsiella pneumoniae (NCTC 9633); test: broth microdilution MIC (CLSI M07-A9), resazurin; format: cell-based; details: 24 h
Protocol: as §1

[6] = tested on: Staphylococcus aureus (ATCC 25923); test: broth microdilution MIC (CLSI M07-A9), resazurin; format: cell-based; details: ATCC25923, 24 h
Protocol: as §1

[7] = tested on: Escherichia coli (ATCC 35218); test: broth microdilution MIC (CLSI M07-A9), resazurin; format: cell-based; details: ATCC35218, 24 h, read-out: MIC Ec-1
Protocol: as §1

[8] = tested on: Listeria monocytogenes (ATCC 1911); test: broth microdilution MIC (CLSI M07-A9), resazurin; format: cell-based; details: ATCC1911, 24 h
Protocol: as §1

[9] = tested on: Enterococcus faecalis (ATCC 29212); test: broth microdilution MIC (CLSI M07-A9), resazurin; format: cell-based; details: ATCC29212, 24 h
Protocol: as §1

MTT cytotoxicity test = details: mouse
Protocol: NIH/3T3 cells were incubated according to the supplier’s recommendations. NIH/3T3 cells were seeded at 1 × 10^4 cells into each well of 96-well plates. MTT assay was performed as previously described[51]^,[52].
There are a number of requirements to be fulfilled for successful new drug development. […] This assay is based upon the reduction of yellow MTT dye by metabolically active eukaryotic and prokaryotic cells to form the purple formazan product. The assay is generally used to examine cell viability and to estimate cell culture growth[66]^,[67].

CC(C(=O)O)c1ccc(CSc2nc3ccccc3s2)cc1 (stereo not shown) [Compound 6f, 2-(4-((Benzo[d]thiazol-2-ylthio)methyl)phenyl)propanoic acid]
MIC [1]: 100 µg/mL (≈ 304 µM)
MIC [2]: 50 µg/mL (≈ 152 µM)
MIC [3]: 100 µg/mL (≈ 304 µM)
SI (selectivity index) (COX-1): 0.54
IC50 (COX-1): 2.36 µM
Selectivity (COX-1): COX-1
melting point: 128.2 to 130.8 °C
IC50 (COX-2): 4.41 µM
MIC [4]: 12.5 µg/mL (≈ 37.9 µM)
MIC Kp [5]: 12.5 µg/mL (≈ 37.9 µM)
MIC [6]: 12.5 µg/mL (≈ 37.9 µM)
MIC [7]: 6.25 µg/mL (≈ 19 µM)
MIC [8]: 12.5 µg/mL (≈ 37.9 µM)
MIC [9]: 12.5 µg/mL (≈ 37.9 µM)

CC(C(=O)O)c1ccc(CSc2nc3cc(Cl)ccc3s2)cc1 (stereo not shown) [Compound 6g, 2-(4-(((5-Chlorobenzo[d]thiazol-2-yl)thio)methyl)phenyl)propanoic acid]
MIC [1]: 100 µg/mL (≈ 275 µM)
MIC [2]: 50 µg/mL (≈ 137 µM)
MIC [3]: 100 µg/mL (≈ 275 µM)
SI (selectivity index) (COX-1): 0.58
IC50 (COX-1): 2.46 µM
Selectivity (COX-1): COX-1
melting point: 162.3 to 164.7 °C
IC50 (COX-2): 4.25 µM
MIC [4]: 12.5 µg/mL (≈ 34.4 µM)
MIC Kp [5]: 12.5 µg/mL (≈ 34.4 µM)
MIC [6]: 12.5 µg/mL (≈ 34.4 µM)
MIC [7]: 6.25 µg/mL (≈ 17.2 µM)
MIC [8]: 12.5 µg/mL (≈ 34.4 µM)
MIC [9]: 12.5 µg/mL (≈ 34.4 µM)

CC(C(=O)O)c1ccc(CSc2nc3ccccc3[nH]2)cc1 (stereo not shown) [Compound 6i, 2-(4-(((1H-benzo[d]imidazol-2-yl)thio)methyl)phenyl)propanoic acid]
MIC [1]: 100 µg/mL (≈ 320 µM)
MIC [2]: 50 µg/mL (≈ 160 µM)
MIC [3]: 100 µg/mL (≈ 320 µM)
SI (selectivity index) (COX-1): 0.62
IC50 (COX-1): 5.9 µM
Selectivity (COX-1): COX-1
melting point: 208.7 to 210.9 °C
IC50 (COX-2): 9.56 µM
MIC [4]: 12.5 µg/mL (≈ 40 µM)
MIC Kp [5]: 6.25 µg/mL (≈ 20 µM)
MIC [6]: 12.5 µg/mL (≈ 40 µM)
MIC [7]: 6.25 µg/mL (≈ 20 µM)
MIC [8]: 12.5 µg/mL (≈ 40 µM)
MIC [9]: 12.5 µg/mL (≈ 40 µM)

Cc1ccc2[nH]c(SCc3ccc(C(C)C(=O)O)cc3)nc2c1 (stereo not shown) [Compound 6j, 2-(4-(((5-Methyl-1H-benzo[d]imidazol-2-yl)thio)methyl)phenyl)propanoic acid]
MIC [1]: 100 µg/mL (≈ 306 µM)
MIC [2]: 50 µg/mL (≈ 153 µM)
MIC [3]: 100 µg/mL (≈ 306 µM)
SI (selectivity index) (COX-1): 0.58
IC50 (COX-1): 4.4 µM
Selectivity (COX-1): COX-1
melting point: 209.1 to 211.6 °C
IC50 (COX-2): 7.53 µM
MIC [4]: 12.5 µg/mL (≈ 38.3 µM)
MIC Kp [5]: 6.25 µg/mL (≈ 19.1 µM)
MIC [6]: 12.5 µg/mL (≈ 38.3 µM)
MIC [7]: 6.25 µg/mL (≈ 19.1 µM)
MIC [8]: 12.5 µg/mL (≈ 38.3 µM)
MIC [9]: 12.5 µg/mL (≈ 38.3 µM)

CC(C(=O)O)c1ccc(CSc2nc3cc(Cl)ccc3[nH]2)cc1 (stereo not shown) [Compound 6k, 2-(4-(((5-Chloro-1H-benzo[d]imidazol-2-yl)thio)methyl)phenyl)propanoic acid]
MIC [1]: 50 µg/mL (≈ 144 µM)
MIC [2]: 50 µg/mL (≈ 144 µM)
MIC [3]: 50 µg/mL (≈ 144 µM)
SI (selectivity index) (COX-1): 0.63
IC50 (COX-1): 3.71 µM
Selectivity (COX-1): COX-1
melting point: 208.8 to 211.5 °C
IC50 (COX-2): 5.91 µM
MIC [4]: 12.5 µg/mL (≈ 36 µM)
MIC Kp [5]: 6.25 µg/mL (≈ 18 µM)
MIC [6]: 12.5 µg/mL (≈ 36 µM)
MIC [7]: 6.25 µg/mL (≈ 18 µM)
MIC [8]: 12.5 µg/mL (≈ 36 µM)
MIC [9]: 12.5 µg/mL (≈ 36 µM)

CC(C(=O)O)c1ccc(CSc2nc3cc([N+](=O)[O-])ccc3[nH]2)cc1 (stereo not shown) [Compound 6m, 2-(4-(((5-Nitro-1H-benzo[d]imidazol-2-yl)thio)methyl)phenyl)propanoic acid]
MIC [1]: 50 µg/mL (≈ 140 µM)
MIC [2]: 50 µg/mL (≈ 140 µM)
MIC [3]: 50 µg/mL (≈ 140 µM)
SI (selectivity index) (COX-1): 0.52
IC50 (COX-1): 4.48 µM
Selectivity (COX-1): COX-1
melting point: 176.5 to 178.7 °C
IC50 (COX-2): 8.66 µM
MIC [4]: 6.25 µg/mL (≈ 17.5 µM)
MIC Kp [5]: 6.25 µg/mL (≈ 17.5 µM)
MIC [6]: 6.25 µg/mL (≈ 17.5 µM)
MIC [7]: 6.25 µg/mL (≈ 17.5 µM)
MIC [8]: 12.5 µg/mL (≈ 35 µM)
MIC [9]: 6.25 µg/mL (≈ 17.5 µM)

CC(C)Cc1ccc(C(C)C(=O)O)cc1 (stereo not shown) [Ibuprofen, reference compound]
IC50 (MTT cytotoxicity test): ≥ 1000 µM
